Values after ≈ are worked out from the molar mass of the structure shown.
Key:
[1] = system: K. pneumoniae SI-117 producing VIM-1; assay: Broth microdilution MIC in CAMHB; type: cell-based; conditions: Klebsiella pneumoniae, read-out: Minimum Inhibitory Concentration, K. pneumoniae SI-117
Summary of the method: (§1)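 CLSI microdilution; CAMHB; inoculum 2-8×10^5 CFU/mL from 3-5 h 37° C culture; 2-fold compound series; 16-20 h, 37° C; MIC = lowest well without visible growth.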

E. coli AG100 = assay: Broth microdilution MIC in CAMHB; type: cell-based; conditions: Escherichia coli; E. coli AG100 (wild-type parent); MHB; read-out: Minimum Inhibitory Concentration, E. coli AG100
Summary of the method: as §1

[2] = system: K. pneumoniae 848844 producing SHV-11 and KPC-2; assay: Broth microdilution MIC in CAMHB; type: cell-based; conditions: Klebsiella pneumoniae, read-out: Minimum Inhibitory Concentration, K. pneumoniae 848844
Summary of the method: as §1

P. aeruginosa ATCC 35151 = assay: Broth microdilution MIC in CAMHB; type: cell-based; conditions: Pseudomonas aeruginosa, ATCC35151; MHB; hyper-permeable strain; read-out: Minimum Inhibitory Concentration, P. aeruginosa ATCC 35151
Summary of the method: as §1

[3] = system: K. pneumoniae UMM producing SHV-5 and KPC-2; assay: Broth microdilution MIC in CAMHB; type: cell-based; conditions: Klebsiella pneumoniae, read-out: Minimum Inhibitory Concentration, K. pneumoniae UMM
Summary of the method: as §1

[4] = system: P. aeruginosa (ΔmexAB-oprM); assay: Broth microdilution MIC in CAMHB; type: cell-based; conditions: Pseudomonas aeruginosa, read-out: Minimum Inhibitory Concentration, P. aeruginosa ΔmexAB-OprM
Summary of the method: as §1

A. baumannii ATCC 19606 = assay: Broth microdilution MIC in CAMHB; type: cell-based; conditions: Acinetobacter baumannii, ATCC19606; MHB; read-out: Minimum Inhibitory Concentration, A. baumannii ATCC 19606
Summary of the method: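 Lowest compound concentration with no visible growth after 16-20 h at 37 °C defines MIC. Plates of 2-fold serial dilutions in cation-adjusted Mueller Hinton broth received 2-8×10^5 CFU/mL of exponentially grown cells, per CLSI methods; panel spans reference, hyper-permeable and efflux-pump-deleted strains.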

E. coli ATCC 25922 = assay: Broth microdilution MIC in CAMHB; type: cell-based; conditions: Escherichia coli, ATCC25922; E. coli ATCC 25922; MHB; read-out: Minimum Inhibitory Concentration, E. coli 25922
Summary of the method: as §1

E. coli 901C = assay: Broth microdilution MIC in CAMHB; type: cell-based; conditions: Escherichia coli; E. coli 901C (hyper-permeable); MHB; read-out: Minimum Inhibitory Concentration, E. coli 901C
Summary of the method: as §1

P. aeruginosa ATCC 27853 = assay: Broth microdilution MIC in CAMHB; type: cell-based; conditions: Pseudomonas aeruginosa, ATCC27853; MHB; read-out: Minimum Inhibitory Concentration, P. aeruginosa ATCC 27853
Summary of the method: as §1

E. coli D22 = assay: Broth microdilution MIC in CAMHB; type: cell-based; conditions: Escherichia coli; E. coli D22 (hyper-permeable); MHB; read-out: Minimum Inhibitory Concentration, E. coli D22
Summary of the method: as §1

E. coli AG100A = assay: Broth microdilution MIC in CAMHB; type: cell-based; conditions: Escherichia coli, read-out: Minimum Inhibitory Concentration, E. coli AG100A
Summary of the method: as §1

[5] = Bocillin-FL fluorescence polarization competition binding assay, A. baumannii PBP3; conditions: fluorescence polarization competition binding assay using Bocillin-FL; column 3; read-out: 4. baumannii PBP1a Potency
Source text: Example I: Experimental Method for Penicillin-Binding Protein Binding Assays with Bocillin-FL Via Fluorescence Polarization
To determine the ability of boronic acid-based test PBP inhibitors to bind Penicillin Binding Proteins (PBPs), Bocillin-FL (fluorescently-labeled penicillin V; ThermoFisher Scientific) was used in a fluorescence polarization (FP) competition binding assay to assess inhibitor binding to PBP2, PBP3 or PBP4 from Escherichia coli (K12), PBP3 from Pseudomonas aeruginosa (PA01), PBP1a, PBP2 and PBP3 from Acinetobacter baumannii (ATCC 19606), and PBP2 from Neiserria gonorrheae (FA19). PBPs were cloned and purified as described previously (E. coli PBPs, King, D. T, et al., ACS Infectious Diseases 2015, 1, 175-184; P. aeruginosa PBP3, Han et. al., PNAS 2010, 107 (51), 22002-22007; A. baumannii PBPs, Penwell et. al., Antimicrob. Agents Chemother. 2015, 59 (3), 1680-1689; N. gonorrhoeae PBP2, Singh et. al., J Biol. Chem. 2019, 294 (38), 14020-14032). To establish assay conditions for competition binding, enzyme titration/saturation binding experiments were initially performed. Bocillin-FL was prepared at 0.2 μM in a buffer comprised of 50 mM Hepes (pH 8.0), 300 mM NaCl and 5% (v/v) glycerol for reactions with E. coli, P. aeruginosa and N. gonorrhoeae PBPs, and 25 mM Tris (pH 8.0), 200 mM NaCl and 10% (v/v) glycerol and 0.005% (v/v) Tween 20 for reactions with A. baumannii PBPs. Saturation binding was performed by mixing 40 μl of PBP solutions ranging in concentrations from 0-24 μM with 40 μl of the 0.2 μM Bocillin-FL solution, in individual wells of a black 384-well microplate. FP was measured immediately upon mixing (Excitation, 490 nm; Emission, 520 nm; g-factor, 0.96), using a Cytation3 (BioTek) microplate reader and measured continuously for up to 120 minutes. […] The competition binding assay (80 μl final volume) was validated using beta-lactams and PBPs at final concentrations of: 1.5 μM, E. coli PBP3; 0.75 μM, P. aeruginosa PBP3; 1 μM A. baumannii PBP1a; 2.5 μM A. baumannii PBP2; 0.2 μM A. baumannii PBP3; and […] N. gonorrhoeae PBP2. Bocillin-FL was at 0.1 μM (0.05 μM with A. baumannii PBP1a) and beta-lactam concentrations ranged from 0-1000 μM. […] Bocillin-FL was added and the FP immediately measured for up to 60 minutes (90 minutes for E. coli PBP2). […] The beta-lactam potency was reported as the concentration of beta-lactam required to reduce the amount of PBP bound-Bocillin-FL by 50% (EC50). […] Binding assays for boronic acid PBP inhibitors were performed in an identical fashion for the respective PBPs

E. coli K12 PBP3 = molecular target: T1, E. coli K12 PBP3 (Escherichia coli, UniProt P0AD68); assay: biochemical; type: binding
T1 construct: made in house
T1 sequence (P0AD68 1-577): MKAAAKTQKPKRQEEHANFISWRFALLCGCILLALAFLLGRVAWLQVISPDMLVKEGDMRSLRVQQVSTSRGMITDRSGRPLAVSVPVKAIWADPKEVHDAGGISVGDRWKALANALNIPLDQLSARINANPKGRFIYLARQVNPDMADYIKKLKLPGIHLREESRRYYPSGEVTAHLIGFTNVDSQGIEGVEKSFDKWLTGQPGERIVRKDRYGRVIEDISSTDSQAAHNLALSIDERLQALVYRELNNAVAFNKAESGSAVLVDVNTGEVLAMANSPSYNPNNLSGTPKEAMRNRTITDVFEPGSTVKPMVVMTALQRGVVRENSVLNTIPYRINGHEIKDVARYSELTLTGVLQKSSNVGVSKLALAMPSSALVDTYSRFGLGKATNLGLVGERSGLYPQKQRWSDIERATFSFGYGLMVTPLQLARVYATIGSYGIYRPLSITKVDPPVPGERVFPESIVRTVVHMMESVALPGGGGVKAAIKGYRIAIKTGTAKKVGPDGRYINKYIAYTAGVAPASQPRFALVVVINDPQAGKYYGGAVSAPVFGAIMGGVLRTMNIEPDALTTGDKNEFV
Summary of the method: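 A. baumannii PBP2 (2.5 μM) and PBP3 (0.2 μM) were run in 25 mM Tris pH 8.0 buffer with Tween 20; E. coli PBP3 (1.5 μM) and N. gonorrhoeae PBP2 ([…]) in 50 mM Hepes pH 8.0 buffer.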

P. aeruginosa PBP3 = molecular target: T2, P. aeruginosa PBP3 (Pseudomonas aeruginosa, UniProt G3XD46); assay: Bocillin-FL fluorescence polarization competition binding assay, P. aeruginosa PBP3; conditions: fluorescence polarization competition binding assay using Bocillin-FL
T2 construct: made in house
T2 sequence (G3XD46 whole entry): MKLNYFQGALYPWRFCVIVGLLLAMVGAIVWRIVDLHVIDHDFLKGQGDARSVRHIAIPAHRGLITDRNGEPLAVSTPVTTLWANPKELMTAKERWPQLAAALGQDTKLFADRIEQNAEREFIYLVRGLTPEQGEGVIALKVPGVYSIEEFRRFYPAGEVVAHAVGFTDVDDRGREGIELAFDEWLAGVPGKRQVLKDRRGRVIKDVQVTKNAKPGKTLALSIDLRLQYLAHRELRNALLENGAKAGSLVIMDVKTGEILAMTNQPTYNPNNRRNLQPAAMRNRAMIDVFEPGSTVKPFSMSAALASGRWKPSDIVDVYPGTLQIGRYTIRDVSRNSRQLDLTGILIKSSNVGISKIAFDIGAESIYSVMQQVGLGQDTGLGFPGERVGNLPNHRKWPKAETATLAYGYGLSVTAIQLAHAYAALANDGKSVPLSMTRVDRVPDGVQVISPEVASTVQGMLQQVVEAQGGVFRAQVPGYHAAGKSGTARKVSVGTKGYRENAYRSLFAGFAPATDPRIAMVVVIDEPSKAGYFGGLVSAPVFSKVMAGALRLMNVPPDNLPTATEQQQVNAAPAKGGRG
Summary of the method: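 Inhibitor competition with Bocillin-FL for P. aeruginosa PBP3 was followed by fluorescence polarization on a Cytation3 (BioTek) reader, using g-factor 0.96, 490 nm excitation and 520 nm emission. The enzyme was at 0.75 μM and the probe at 0.1 μM in Hepes/NaCl/glycerol buffer, 80 μl per well. FP was recorded immediately after probe addition for up to 60 minutes. Potency was expressed as EC50, the concentration that reduces bound probe by 50%.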

`NCCCN1CCN(C(=O)N[C@@H](C(=O)N[C@H]2Cc3ccc(F)c(C(=O)O)c3OB2O)c2ncc(O)cc2F)C(=O)C1=O` [Example 16, (R)-3-((R)-2-(4-(3-aminopropyl)-2,3-dioxopiperazine-1-carboxamido)-2-(3-fluoro-5-hydroxypyridin-2-yl)acetamido)-7-fluoro-2-hydroxy-3,4-dihydro-2H-benzo[e][1,2]oxaborinine-8-carboxylic acid] showed an MIC [1] of 32 to 64 µg/mL (≈ 54.2 to 108 µM), an MIC (E. coli AG100) of 8 to 16 µg/mL (≈ 13.6 to 27.1 µM) and an MIC [2] of 32 to 64 µg/mL (≈ 54.2 to 108 µM). It also gave an MIC (P. aeruginosa ATCC 35151) of less than 0.25 µg/mL, an MIC [3] of 32 to 64 µg/mL (≈ 54.2 to 108 µM) and an MIC [4] of 8 to 16 µg/mL (≈ 13.6 to 27.1 µM). The MIC (A. baumannii ATCC 19606) was greater than 128 µg/mL, the MIC (E. coli ATCC 25922) was 8 to 16 µg/mL (≈ 13.6 to 27.1 µM) and the MIC (E. coli 901C) was 2 to 4 µg/mL (≈ 3.39 to 6.78 µM). It also gave an MIC (P. aeruginosa ATCC 27853) of 32 to 64 µg/mL (≈ 54.2 to 108 µM), an MIC (E. coli D22) of 2 to 4 µg/mL (≈ 3.39 to 6.78 µM) and an MIC (E. coli AG100A) of 8 to 16 µg/mL (≈ 13.6 to 27.1 µM). The EC50 [5] was 30 to 100 µM, the EC50 (E. coli K12 PBP3) was less than 30 µM and the “P. aeruginosa PBP3 Potency” value (P. aeruginosa PBP3) was “D (D represents a potency <10 μM)”.
